The text below walks through data of PubChem BioAssay (NCI).

Test systems include HCC-2998 colon; SF-268 CNS; SK-MEL-2 melanoma; SW-620 colon; SF-295 CNS; SK-OV-3 ovarian; HOP-92 NSCLC; OVCAR-4 ovarian; DU-145 prostate; OVCAR-3 ovarian.
Holding throughout (assay): NCI tumour cell line growth inhibition, 48 h

Values joined by “and” are separate entries in the source; they are usually repeats but may differ in a detail not shown here. Equal entries are not always repeated.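 Grown in 96-well plates, cells were treated for 48 hours with each compound at five concentrations. Insufficient inhibition: endpoint recorded as highest concentration tested. GI50 is the concentration that inhibits growth by half. The concentration for full growth arrest is given as TGI.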

Regarding `O=c1[nH]c2ccccc2n1C1CCN(CCCC(c2ccc(F)cc2)c2ccc(F)cc2)CC1`, the GI50 in the test with HCC-2998 colon was 1.5 µM; with SK-MEL-2 melanoma, 2.1 µM and 5.52 µM; in the test with SW-620 colon, 1.75 µM and 4.5 µM; in the test with SF-295 CNS, 1.5 µM; in the test with SK-OV-3 ovarian, 1.56 µM; with HOP-92 NSCLC, 0.252 µM. For the same molecule, the GI50 was 1.23 µM in the test with OVCAR-4 ovarian; 1.73 µM and 13.7 µM with DU-145 prostate; 1.7 µM and 4.37 µM in the test with OVCAR-3 ovarian. Moreover, the TGI in the test on HCC-2998 colon is 2.9 µM and 3.84 µM; in the test on SF-268 CNS it was 28.9 µM; with SK-MEL-2 melanoma, 3.96 µM and 12.3 µM; in the test with SW-620 colon it was 3.41 µM and 13.8 µM; in the test on SF-295 CNS it was 3.02 µM and 14.5 µM; in the test on SK-OV-3 ovarian, 3.12 µM and 24.9 µM. In addition, the TGI is 1.71 µM and 14 µM in the test on HOP-92 NSCLC; 2.47 µM and 22 µM with OVCAR-4 ovarian; 3.24 µM and 28.5 µM with DU-145 prostate; 3.13 µM and 13.1 µM in the test on OVCAR-3 ovarian.

Take `N#CCNC(=O)c1ccc(-c2ccnc(Nc3ccc(N4CCOCC4)cc3)n2)cc1`: the GI50 was > 10 µM and 3.98 µM with HCC-2998 colon; 1.78 µM and 1.41 µM in the test on SF-268 CNS; 3.97 µM and 2.48 µM in the test on SK-MEL-2 melanoma; 3.97 µM and 3.46 µM with SW-620 colon; 4.56 µM and 1.94 µM with SF-295 CNS; 4.04 µM and 3.83 µM in the test with SK-OV-3 ovarian. Besides, the GI50 is 0.511 µM and 0.153 µM with HOP-92 NSCLC; 5.94 µM and 13.3 µM with OVCAR-4 ovarian; 2.62 µM and 1.65 µM with DU-145 prostate; 7.77 µM and 5.78 µM in the test on OVCAR-3 ovarian. Further, the TGI in the test with HCC-2998 colon was > 10 µM and 47.4 µM; with SF-268 CNS, > 10 µM and 17.7 µM; in the test on SK-MEL-2 melanoma, > 10 µM and 19 µM; with SW-620 colon it was above 100 µM; with SF-295 CNS it was > 10 µM and 16.6 µM; with SK-OV-3 ovarian, > 10 µM and 24.7 µM. Further, the TGI was 9.61 µM and 10.7 µM in the test on HOP-92 NSCLC; > 10 µM and 44.9 µM in the test on OVCAR-4 ovarian; above 100 µM with DU-145 prostate; > 10 µM and 46.6 µM in the test with OVCAR-3 ovarian.

For `COc1c(CC=C(C)C)c(O)c(C(CC(C)C)c2c(O)c(CC=C(C)C)c(O)c(C(C)=O)c2O)c(O)c1C(C)=O` (centres undefined), the TGI with HCC-2998 colon worked out at 1.69 µM; in the test with SF-268 CNS it was 8.12 µM; in the test with SK-MEL-2 melanoma, 1.94 µM; in the test with SW-620 colon, 5.8 µM; in the test with SF-295 CNS, 2.28 µM; with SK-OV-3 ovarian, 11.1 µM. The TGI came to 0.562 µM in the test with HOP-92 NSCLC, 14.4 µM in the test on OVCAR-4 ovarian, 16.5 µM in the test with DU-145 prostate and 12.5 µM in the test on OVCAR-3 ovarian.

For `NCc1ccc(-c2nc(-c3ccc(Cl)c(O)c3)c(-c3ccncc3)[nH]2)cc1`, the GI50 is above 25 µM in the test with HCC-2998 colon; above 25 µM in the test with SF-268 CNS; 1.65 µM with SK-MEL-2 melanoma; 24.2 µM in the test on SW-620 colon; above 25 µM with SF-295 CNS; above 25 µM in the test on SK-OV-3 ovarian. Also, the GI50 in the test with HOP-92 NSCLC was 2.1 µM; in the test on OVCAR-4 ovarian, above 25 µM; with DU-145 prostate it was above 25 µM; in the test on OVCAR-3 ovarian it was above 25 µM. Further, the TGI with HCC-2998 colon was above 25 µM; in the test with SF-268 CNS it was above 25 µM; with SK-MEL-2 melanoma, 9.86 µM; in the test with SW-620 colon, above 25 µM; in the test with SF-295 CNS, above 25 µM; in the test on SK-OV-3 ovarian, above 25 µM. Besides, the TGI was 19.6 µM in the test with HOP-92 NSCLC, above 25 µM in the test on OVCAR-4 ovarian, above 25 µM with DU-145 prostate and above 25 µM in the test with OVCAR-3 ovarian.

Take `O=S(=O)(NCCCNc1cc(-c2cn(-c3ccccc3)nc2-c2cccc(O)c2)ccn1)c1ccc(F)cc1`: the GI50 in the test with HCC-2998 colon was 2.2 µM; with SF-268 CNS, 3.65 µM; with SK-MEL-2 melanoma, 2.79 µM; in the test with SW-620 colon it was 3.76 µM; in the test with SF-295 CNS, 1.95 µM; in the test on SK-OV-3 ovarian, 4.44 µM. The GI50 in the test with HOP-92 NSCLC is 2.66 µM; in the test on OVCAR-4 ovarian, 3.82 µM; in the test on DU-145 prostate, 4.12 µM; in the test on OVCAR-3 ovarian it was 3.28 µM. Moreover, the TGI stood at 4.52 µM in the test with HCC-2998 colon; 22.9 µM in the test on SF-268 CNS; 9.14 µM in the test with SK-MEL-2 melanoma; 14.2 µM in the test on SW-620 colon; 4.09 µM with SF-295 CNS; 23.5 µM in the test with SK-OV-3 ovarian. Besides, the TGI in the test on HOP-92 NSCLC amounted to 7.62 µM; in the test with OVCAR-4 ovarian, 48.9 µM; in the test on DU-145 prostate, 36.7 µM; with OVCAR-3 ovarian it was 14.9 µM.

For `CC(=O)N(O)c1ccc(/C=C/c2ccccc2)cc1`, the GI50 was 1.65 µM in the test on HCC-2998 colon; 0.817 µM in the test with SF-268 CNS; 5.71 µM in the test with SK-MEL-2 melanoma; 1.15 µM in the test with SW-620 colon; 0.362 µM in the test with SF-295 CNS; 2.04 µM with SK-OV-3 ovarian. In addition, the GI50 in the test on HOP-92 NSCLC is 1.14 µM; with OVCAR-4 ovarian it was 2.91 µM; in the test with DU-145 prostate, 0.278 µM; in the test with OVCAR-3 ovarian, 2.55 µM. Also, the TGI with HCC-2998 colon was 3.76 µM; in the test on SF-268 CNS, 9.69 µM; with SK-MEL-2 melanoma it was 37.9 µM; in the test on SW-620 colon, above 100 µM; with SF-295 CNS, 2.78 µM; with SK-OV-3 ovarian, 8.77 µM. Moreover, the TGI in the test on HOP-92 NSCLC is 3.65 µM; with OVCAR-4 ovarian, above 82.1 µM; in the test with DU-145 prostate, 2.52 µM; in the test with OVCAR-3 ovarian, 29.2 µM.

`CC(C)N(Cc1ccc(F)cc1)c1ccc(CO)c(Cl)c1`: the GI50 is 2.81 µM with HCC-2998 colon; 13.1 µM with SF-268 CNS; 1.61 µM in the test on SK-MEL-2 melanoma; 0.363 µM in the test on SW-620 colon; 0.25 µM in the test on SF-295 CNS; 4.83 µM in the test with SK-OV-3 ovarian. Also, the GI50 in the test with HOP-92 NSCLC is 0.205 µM; in the test with OVCAR-4 ovarian, 0.116 µM; in the test with DU-145 prostate, 11.1 µM; in the test on OVCAR-3 ovarian, 0.184 µM. Also, the TGI in the test on HCC-2998 colon came to 20 µM; in the test with SF-268 CNS, 26.4 µM; in the test with SK-MEL-2 melanoma, 16.6 µM; in the test with SW-620 colon it was 15.3 µM; in the test with SF-295 CNS, 11.8 µM; in the test on SK-OV-3 ovarian, 17.9 µM. The TGI is 4.22 µM in the test with HOP-92 NSCLC, 1.7 µM in the test on OVCAR-4 ovarian, 23.3 µM in the test on DU-145 prostate and 0.623 µM in the test with OVCAR-3 ovarian.

On to `CCN(Cc1ccc(F)cc1)c1ccc(CO)c(C(F)(F)F)c1`, for which the GI50 with HCC-2998 colon is 14.9 µM; in the test with SF-268 CNS, 15.5 µM; with SK-MEL-2 melanoma, 15.1 µM; in the test on SW-620 colon, 11.2 µM; in the test with SF-295 CNS it was 3.3 µM; with SK-OV-3 ovarian it was 15.8 µM. For the same molecule, the GI50 with HOP-92 NSCLC is 2.29 µM; in the test with OVCAR-4 ovarian, 1.79 µM; with DU-145 prostate, 16.7 µM; in the test with OVCAR-3 ovarian, 6.91 µM. Further, the TGI with HCC-2998 colon stood at 28.2 µM; with SF-268 CNS, 31.3 µM; in the test with SK-MEL-2 melanoma it was 32.5 µM; in the test with SW-620 colon, 23.5 µM; in the test on SF-295 CNS, 16.5 µM; in the test with SK-OV-3 ovarian it was 30.8 µM. In addition, the TGI in the test with HOP-92 NSCLC was 17.8 µM; with OVCAR-4 ovarian, 12.8 µM; in the test on DU-145 prostate it was 31.8 µM; in the test with OVCAR-3 ovarian, 19.6 µM.
